Assay results as given in PubChem BioAssay (NCI).
Several values for one entry are separate records, joined by “and”; a condition that tells them apart may be missing. Equal entries are not always repeated.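 Values below derive from 48-hour exposures of cells grown in 96-well plates, with endpoints linearly interpolated between the two concentrations bracketing the appropriate inhibition level. Here, GI50 denotes the concentration required for 50% inhibition of growth. Definition used: TGI = concentration required for complete inhibition of growth.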

Assays:
Assay in all cases: NCI tumour cell line growth inhibition, 48 h
[1] = test system: EKVX NSCLC
[2] = test system: SF-268 CNS
[3] = test system: NCI/ADR-RES ovarian
[4] = test system: HOP-62 NSCLC
[5] = test system: T-47D breast
[6] = test system: DU-145 prostate
[7] = test system: MOLT-4 leukemia
[8] = test system: COLO 205 colon
[9] = test system: BT-549 breast
[10] = test system: PC-3 prostate

Structure (SMILES) | GI50 [1] | TGI [1] | GI50 [2] | TGI [2] | GI50 [3] [µM] | TGI [3] | GI50 [4] | TGI [4] | GI50 [5] | TGI [5] | GI50 [6] | TGI [6] | GI50 [7] | TGI [7] | GI50 [8] | TGI [8] [µM] | GI50 [9] | TGI [9] | GI50 [10] | TGI [10]
Fc1ccc(-c2ncn(C3CCNCC3)c2-c2ccnc(Oc3ccc(Cl)cc3)n2)cc1 | 6 µM | > 21.3 µM | 8.67 µM | > 25 µM | 6.03 | > 22.7 µM | 3.7 µM | 7.46 µM | 2.74 µM | 6.71 µM | 6.37 µM | > 15.8 µM | 5.18 µM | 12.9 µM | 3.76 µM | 7.31 | 5.05 µM | 18.8 µM | 6.31 µM | > 15.9 µM
O=C(CC1(O)CCCCC1)OC1CCCC1 |  | > 100 µM |  | > 100 µM |  | > 100 µM |  | > 100 µM |  | > 100 µM |  | > 100 µM |  |  |  | > 100 |  | > 100 µM |  | > 100 µM
CN(C)CCN=c1nc2c(c(N)n1-c1ccccc1)c(=S)n(-c1ccccc1)c(=S)n2-c1ccccc1 | 11 µM | 27.2 µM | 3.34 µM | 15.1 µM | 10.4 | 26.7 µM | 2.73 µM | 10.8 µM | 1.88 µM | 4.34 µM | 4.91 µM | 17.7 µM | 2.79 µM | > 21.6 µM | 1.52 µM | 3.32 | 3.21 µM | 13.3 µM | 4.58 µM | 27.7 µM
CCS(=O)(=O)c1cccc(-c2cc(C(=O)NC3CCN(C)CC3)c(C)c3[nH]c4ncc(C)cc4c23)c1 | 1.33 µM and 0.898 µM | > 10 µM and 11 µM | 0.332 µM and 0.245 µM | 2.19 µM and 1.1 µM | 44.9 | > 100 µM | 0.645 µM and 0.266 µM | > 6.56 µM and 2.01 µM | 0.277 µM and 0.204 µM | 4.12 µM and 3.16 µM | 1.21 µM and 0.745 µM | 3.48 µM and 2.35 µM | 0.316 µM and 0.237 µM | > 6.38 µM and 3.14 µM | 0.0923 µM and 0.0318 µM |  | 1.75 µM and 0.875 µM | 5.84 µM and 2.2 µM | 0.374 µM and 0.104 µM | 5.85 µM and 4.71 µM
O=C1c2ccccc2-c2c1c1ccccc1c(=O)n2CCNCCNCCNCCNCCn1c2c(c3ccccc3c1=O)C(=O)c1ccccc1-2 | 0.677 µM | 2.7 µM | 0.049 µM | 0.808 µM | > 53 | 96.9 µM | 0.973 µM | 2.24 µM | 1.99 µM | > 100 µM | 0.161 µM | 1.57 µM | < 0.0191 µM |  | 0.597 µM | 3.94 | 0.334 µM | 1.62 µM |  | 
COc1ccc(C2=NNC(c3sc(Cl)nc3Cl)C2)cc1 (stereo not drawn) |  |  | 5.65 µM | 27.5 µM | 10.2 | > 100 µM | 28.4 µM | > 100 µM | 2.68 µM | 8.89 µM | 7.38 µM | 20.4 µM | 3.58 µM | 22.1 µM | 2.17 µM | 4.4 | 2.89 µM | 9.82 µM | 6.11 µM | 29.5 µM
O=C(OCC1=CC(=O)c2ccccc2C1=O)c1ccccc1 | 12.9 µM | 27.5 µM | 14.1 µM | 29.6 µM | 21.7 | 60.1 µM | 14.4 µM | 29.6 µM | 14.6 µM | 42.3 µM | 1.83 µM | 3.6 µM |  |  | 2.74 µM | 10.7 | 13.8 µM | 27 µM | 14.1 µM | 38 µM
OC(Cc1cccc2ccccc12)CN1CCC(c2ccccc2)CC1 (stereo not drawn) |  | 27.1 µM |  | 28.2 µM |  | 28.5 µM |  | 30.2 µM |  | 40.6 µM |  | 31.9 µM |  |  |  | 25.6 |  | 31.3 µM |  | 30.5 µM
CSCc1ncc(-c2ccc(C(F)(F)F)cc2)c(NC2CCCCCC2)n1 |  |  | > 10 µM | > 10 µM | > 10 | > 10 µM | > 10 µM | > 10 µM | > 10 µM | > 10 µM | > 10 µM | > 10 µM | > 10 µM | > 10 µM | > 10 µM | > 10 | > 10 µM | > 10 µM | > 10 µM | > 10 µM
CN1C2C=CC(=O)C1C(C#N)C2 (stereo not drawn) | 20.6 µM and 44.2 µM | 49.6 µM and > 100 µM |  | > 100 µM |  | > 100 µM |  | > 100 µM |  | 75.9 µM and > 100 µM |  | > 100 µM |  | > 100 µM |  |  | 34.5 µM and 93.1 µM | > 100 µM |  | > 100 µM
CSC(=S)NCc1cn(C)c2ccccc12 | 32 µM | > 100 µM | 23.5 µM | 68 µM | 30 | > 100 µM | 49.4 µM | > 100 µM | 29.5 µM | > 100 µM | 29.1 µM | > 100 µM |  |  | 17.5 µM | 65.9 | 20 µM | 54.2 µM | 33 µM | > 100 µM
CN(CCOc1ccc(NS(C)(=O)=O)cc1)CCc1ccc(NS(C)(=O)=O)cc1 |  |  | > 100 µM | > 100 µM | > 100 | > 100 µM | > 100 µM | > 100 µM | > 100 µM | > 100 µM | > 100 µM | > 100 µM | > 100 µM | > 100 µM | > 100 µM | > 100 | > 100 µM | > 100 µM | > 100 µM | > 100 µM
O=S1(=O)CCC2=CC(C(F)(F)F)=CC(C(F)(F)F)=CN21 |  | 9.38 µM |  | 4.68 µM |  |  |  | 4.88 µM |  | 0.397 µM |  | 5.46 µM |  | 1.8 µM |  | 1.34 |  | 6.1 µM |  | 5.91 µM
CCCC(=O)Nc1cc(/C=C/C(=O)N2C[C@@H]3C[C@]34C2=CC(=O)c2[nH]cc(C)c24)n(C)c1 | 0.172 µM |  |  | 4.89 µM | 0.946 | 6.38 µM and 4.77 µM |  | 25 µM |  | 1.08 µM | 0.0252 µM |  |  | 0.134 µM and 0.515 µM |  |  | 0.233 µM | 1.96 µM and 0.749 µM | 0.125 µM | 5.7 µM and 0.625 µM
C/C(=N\NC(=S)N1CCCC1)c1ccccn1 |  |  | 0.0261 µM | 12.7 µM | < 0.01 | 10.6 µM | < 0.01 µM | 13.8 µM | < 0.01 µM | 11 µM | 0.0428 µM | 14.8 µM | < 0.0115 µM | 11.6 µM | < 0.01 µM | 10.8 | 0.018 µM | 14.9 µM | < 0.01 µM | 16.7 µM
CCNc1ccc2c(c1)C(=O)N(OS(C)(=O)=O)C2=O |  | > 100 µM |  | > 100 µM |  | > 100 µM |  | > 100 µM |  | > 100 µM |  | > 100 µM |  |  |  | > 100 |  | > 100 µM |  | > 100 µM
